# Experimental data as given in patent US20170304411A1, “TOPICAL FORMULATION FOR TREATING SKIN OR MUCOSAL INFECTIONS, PREPARATION METHOD AND USES THEREOF” (HPRD - HEALTH PRODUCTS RESEARCH AND DEVELOPMENT LDA, priority 2014, published 2017).
# Legend:
# [1] = tested on: biofilms from C. albicans strains; conditions: clotrimazole alone, without bromelain
# [2] = tested on: biofilms from C. albicans strains; test: Checkerboard bromelain/clotrimazole, metabolic activity of biofilms (XTT reduction assay); assay type: cell-based; conditions: increasing concentrations of clotrimazole alone; tested C. albicans strains
# Excerpt: Following the washing step of microplates, the number of metabolically active cells available to metabolize XTT is reduced, leading to the overall reduction on metabolic activity.
# [3] = after application in the eye; cited from earlier work
# [4] = applied with no dilution on skin and mucosa as occlusive patch; cited from earlier work
# [5] = tested on: planktonic cells of different Candida species, including C. albicans; test: Direct fungistatic or fungicidal activity against planktonic cells; assay type: cell-based; conditions: previous studies by the applicant's team
# Experimental: When bromelain is added, an increase of activity reduction is observed, dependent on the enzyme concentration (the addition of a 250 μg/mL bromelain solution leads to metabolic activity reductions near 80% for both strains). […] Thus, the increase in metabolic activity reduction shown for the combination of bromelain and clotrimazole is not due to a direct fungistatic activity of the enzyme, but to a degradation of the biofilm matrix. The degradation of this matrix allows for the penetration of clotrimazole in the biofilm favouring its antimicrobial action.
compound,measurement,setting,value
Clc1ccccc1C(c1ccccc1)(c1ccccc1)n1ccnc1 [clotrimazole],reduction of biofilm biomass,[1],limited
same,reduction of metabolic activity,[2],≤ 60%
CC(=O)OCC(COC(C)=O)OC(C)=O [triacetin],ocular irritation,[3],induces an ocular irritation it does not cause harm
same,irritation potential,[4],low irritation potential
bromelain,direct fungistatic or fungicidal activity,[5],does not exhibit direct fungistatic or fungicidal activity
